{"source": "patent US20250327027A1", "about": "“METHODS TO GENERATE ENHANCED TUMOR INFILTRATING LYMPHOCYTES THROUGH MICROFLUIDIC DELIVERY” (STEMCELL TECHNOLOGIES CANADA INC., priority 2021, published 2025)", "assay_type_in_all_cases": "cell-based", "key": {"[1]": {"tested_on": "lung TILs", "assay": "Comparison of anti-CD3 antibody concentration in pre-REP (mbIL-2/mbIL-12 and CD62L expression)", "conditions": "6 or 30 ng/mL anti-CD3 antibody (OKT3 clone) during pre-REP", "procedure": "As described herein, in some aspects, prior to modifying the TILs, the TILs can undergo a first expansion phase (pre-REP) and a second expansion phase (REP). Whether the concentration of the anti-CD3 antibody during the first expansion phase has an effect in producing the modified TILs described herein, the following methods were used. Briefly, lung TILs underwent a pre-REP process in the absence or presence of 6 or 30 ng/mL anti-CD3 antibody (OKT3 clone). Then, the TILs were collected and further expanded in a REP process. Afterwards, the cells were resuspended at 40 million live cells/mL cell density as 2× concentration. The cells were mixed with equal volume of 2× mRNA solution and squeezed through 10-4-70 ST at 60 psi at room temperature. Final concentration of cells was 20 million live cells/mL. Final mRNA concentration for squeeze was […] for each of mbIL-2 and mbIL-12 mRNA. Following squeezing, cells were quenched in CTS OpTmizer media and spun immediately. […] The squeezed TILs were assessed at 4, 24, and 48 hours post squeeze by flow cytometry for viability, cell composition, surface levels of mbIL-2 and mbIL-12."}, "[2]": {"tested_on": "TILs", "assay": "Effect of anti-CD3 antibody on TIL expansion from melanoma tumor fragments (NucleoCounter NC-200)", "conditions": "for Cell Count on Day 13 / Viability on Day 13: 6,000 IU/mL recombinant IL-2, replicate wells", "procedure": "Further to the data provided in Example 22, the effect of anti-CD3 antibody on TIL expansion was further assessed. Briefly, freshly resected melanoma tumor was rinsed in 1× Hank's Balanced Salt Solution (HBSS) with 10 μg/mL gentamicin and dissected into 8-27 mm^3 fragments using a forceps and scalpel. […] Five tumor fragments, 8-27 mm^3 in size, per well were added to the G-Rex6M plate. The G-Rex6M plate was then placed in a 37° C., 5% CO2 incubator for 4 days.\nOn day 4, the G-Rex6M plate was removed from the incubator. […] The G-Rex6M plate was returned to the 37° C., 5% CO2 incubator for an additional 9 days.\nOn day 13, the TILs were harvested and transferred to a 50 mL conical tube. The number and viability of the TILs was assessed using a NucleoCounter NC-200."}, "[3]": {"tested_on": "melanoma TILs", "assay": "Comparison of microfluidic chips and anti-CD3 antibody clones used in REP (mbIL-2/mbIL-12 expression)", "conditions": "anti-CD3 clone used in REP culture; 4 hours post squeeze", "excerpt": "As described herein, TILs are often expanded to increase their number prior to their use in adoptive transfer studies Such expansion phase can involve the use of anti-CD3 antibodies to activate and induce the TILs to proliferate. Whether the specific anti-CD3 antibody clone used in the expansion phase was next assessed. Briefly, melanoma TILs were collected from REP cultures that contained different anti-CD3 clones (OKT3, SK7, HIT3a, or UCHT1). Following cell harvest, the post-REP TILs were resuspended at 40 million live cells/mL cell density as 2× concentration. The cells were mixed with equal volume of 2× mRNA solution and squeezed through various chip types (10-3.5-70 SF, 10-4-70 ST) and pressure (30 psi) at room temperature. Final concentration of cells was 20 million live cells/mL. Final mRNA concentration for squeeze was […] for each of mbIL-2 and mbIL-12 mRNA. Following the squeeze processing, cells were quenched in CTS OpTmizer media and spun immediately. […] The squeezed TILs were assessed at 4 hours post squeeze by flow cytometry for viability, cell composition, and surface levels of mbIL-2 and mbIL-12."}}, "note": "“And” between values parts separate entries of the source, which are not always exact repeats. Equal entries are not always repeated.", "data": [{"substance": "OKT3: anti-CD3 antibody clone used in TIL expansion", "values": [{"measurement": "impact on translation kinetics of mbIL-2 and mbIL-12 expression", "setting": "[1]", "result": "minimal impact"}, {"measurement": "Cell Count on Day 13", "setting": "[2]; 6 ng/mL OKT3", "result": "2.35 × 10^8 and 2.43 × 10^8"}, {"measurement": "Viability on Day 13", "setting": "[2]; 6 ng/mL OKT3", "result": "90.7% and 91.1%"}, {"measurement": "Cell Count on Day 13", "setting": "[2]; 20 ng/mL OKT3", "result": "2.00 × 10^8 and 2.17 × 10^8"}, {"measurement": "Viability on Day 13", "setting": "[2]; 20 ng/mL OKT3", "result": "90.5% and 91.6%"}, {"measurement": "TIL expansion", "setting": "[2]; 6 or 30 ng/mL of OKT3, day 13, compared to culture without OKT3", "result": "greater TIL expansion"}, {"measurement": "mbIL-2 and mbIL-12 expression (percentage of total cells and MFI)", "setting": "[3]", "result": "higher expression"}]}]}
